This note sets out measurements from publication PMC5610242, “Stapled peptide inhibitors of RAB25 target context-specific phenotypes in cancer” (Nature Communications, 2017).

By IC50 is commonly meant the point on the concentration scale where inhibition reaches its midpoint. Low readings indicate higher potency, high ones lower potency.

Bridge positions count the residues as written; N and C are the ends. Square brackets hold non-standard residues; d marks the D form. Ends that are not written are not given here. Peptide text beside a SMILES is read from it. * marks the point of attachment. FITC = O=C1OC2(c3ccc(O)cc3Oc3cc(O)ccc32)c2ccc(NC(=S)*)cc21; monoethylene glycol = monoethylene glycol moiety; Met(O) = CS(=O)CC[C@H](N)C(=O)O; S5 = C=CCCC[C@](C)(N)C(=O)O; Nle = CCCC[C@H](N)C(=O)O; βAla = NCCC(=O)O

Series [1] addresses T1, RAB11a (activated Q70L mutant) (Homo sapiens, UniProt P62491, Q70L).
T1 construct: GST-RAB11a (1–173, Q70L mutant) in pGEX5x-1; made in house; host or cells: E. coli BL21
T1 sequence (P62491 1-173 Q70L): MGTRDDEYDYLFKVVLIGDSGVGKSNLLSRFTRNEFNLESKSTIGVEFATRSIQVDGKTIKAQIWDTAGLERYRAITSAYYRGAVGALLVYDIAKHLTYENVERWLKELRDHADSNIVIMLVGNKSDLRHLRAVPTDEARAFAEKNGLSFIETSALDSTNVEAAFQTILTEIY
Nature of the series: Fluorescence polarization binding of FITC-labeled RFP peptides to RAB11a. The settings on record: FP, 10 nM FITC-ligand, GST-RAB11a (1–173, Q70L), FP buffer pH 8.0 with 10 μM GTP, 30 min room temperature; mean with 95% C.I., triplicate; read-out: apparent Kd (95% C.I.) RAB11a. The procedure: (§1) Fluorescence polarization assays were performed with for GST-RAB25 and GST-RAB11a to quantify binding to FITC-labeled unmodified and stapled RFP peptides. Initial fluorescence polarization measurements for RFP1−RFP13 were made by incubating FITC-RFP peptides (25 nM) with threefold dilutions of a given protein in FP buffer, consisting of 20 mM Tris pH 8.0, 150 mM NaCl, 5 mM MgCl2, 2 mM DTT, 10 μM GTP and 2% glycerol. Dilutions and incubations were performed in 96-well, black flat-bottom plates (Nunc) to a total volume of 100 μL, and equilibrated at room temperature for 30 min. Polarization was measured on a Spetramax-M5 multi-label plate reader (Molecular Devices) with λ ex = 485 nm and λ em = 525 nm. Polarization values were determined using the equation: P = (V − H)/(V + H), where P denotes polarization, V denotes vertical emission intensity and H represents horizontal emission intensity. Fraction bound was calculated using the equilibrium maximum polarization value obtained for a given protein among ligands, to which background-subtracted fluorescence polarization values were internally normalized. Fluorescence polarization measurements for FITC-RFP14, 24, 26, 31, and 32 were performed as detailed above with the exception that 10 nM FITC-ligand was used.
Background: In fluorescence polarisation assays a small probe gives low polarisation when free and higher when bound to something large.

The target of series [2] is T2, RAB25 (Homo sapiens, UniProt P57735).
T2 construct: GST-RAB25 (1–180) in pET41 Ek/LIC; made in house; host or cells: E. coli BL21
T2 sequence (P57735 1-180): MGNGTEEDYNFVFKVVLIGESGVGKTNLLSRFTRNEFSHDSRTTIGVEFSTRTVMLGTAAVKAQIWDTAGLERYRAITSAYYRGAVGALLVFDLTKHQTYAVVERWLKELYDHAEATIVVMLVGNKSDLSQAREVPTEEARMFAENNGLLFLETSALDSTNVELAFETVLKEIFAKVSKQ
Nature of the series: Fluorescence polarization binding of FITC-labeled RFP peptides to RAB25. The note with it: FP, 10 nM FITC-ligand, GST-RAB25, FP buffer pH 8.0 with 10 μM GTP, 30 min room temperature; mean with 95% C.I., triplicate; read-out: apparent Kd (95% C.I.) RAB25. As for the experimental part:
as §1

The target in series [3] is T3, H6-RAB25:bio-RFP14 complex (Homo sapiens, UniProt P57735).
T3 construct: His6-RAB25 (1–180) in pET28; made in house; host or cells: E. coli BL21
T3 sequence (P57735 1-180): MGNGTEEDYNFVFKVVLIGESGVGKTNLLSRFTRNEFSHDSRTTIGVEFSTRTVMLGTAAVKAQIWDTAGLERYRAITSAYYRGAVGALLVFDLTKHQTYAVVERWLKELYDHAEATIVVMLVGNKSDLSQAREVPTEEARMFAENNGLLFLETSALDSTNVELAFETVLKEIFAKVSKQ
Nature of the series: ALPHAscreen competitive inhibition of RAB25:RFP14 complex formation. It is filed as binding. The settings on record: H6-RAB25 0.2 μM and bio-RFP14 0.2 μM, mean with 95% C.I., triplicate. A general note: Bead proximity is the source of the signal in Alpha formats.

Series [4] has as its system all cell lines tested (HEY, MCF7, MDA-MB231). Nature of the series: Toxicity seen in wound healing studies. It is filed as cell-based. The note with it: 10 μM. The procedure:
Cells were seeded at a density of 5000–7000 cells for HEY and MDA-MB231 or 15,000 cells for MCF7 on each side of an Ibidi culture insert (Ibidi, Munich, Germany), with a 500 μm separation between each side of the well, and allowed to grow for 24 h to attain a compact monolayer. Cells were pretreated with, or without, RFP peptides (10 μM) or DMSO control for 12 h before removal of the insert, and following removal of the insert cells were incubated in RFP-containing media or DMSO control for the duration of wound closure. Cells were photographed using a Life Technologies EVOS XL Core imaging system 4× or a Nikon DS camera connected to a Nikon Eclipse Ti microscope objective at insert removal (0 h) and when wound closure was complete under control conditions. Experiments were performed in duplicate and a minimum of four fields of the injury were photographed and used for quantification.

Series [5] concerns the target T4, GST-RAB11a (1–173, Q70L mutant) (UniProt P62491 1-173, Q70L).
T4 construct: vector pGEX5x-1; 10 μM GTP in the assay buffer; source: BL21 cells, purified (glutathione sepharose, Superdex 75 gel filtration)
T4 sequence (looked up): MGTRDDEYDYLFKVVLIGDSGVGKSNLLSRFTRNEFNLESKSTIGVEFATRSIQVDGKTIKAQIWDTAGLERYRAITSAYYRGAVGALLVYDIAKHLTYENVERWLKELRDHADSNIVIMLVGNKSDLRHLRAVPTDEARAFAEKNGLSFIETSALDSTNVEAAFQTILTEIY
Description: fluorescence polarisation; FITC-peptide 25 nM with threefold dilutions of GST-RAB protein; 20 mM Tris pH 8.0, 150 mM NaCl, 5 mM MgCl2, 2 mM DTT, 10 μM GTP, 2% glycerol; room temperature, 30 min; apparent Kd. The note with it: both partners purified.

The target in series [6] is T5, His6-RAB25 (1–180) (UniProt P57735 1-180).
T5 construct: RAB25, residues 1-180; vector pET28; also called H6-RAB25; His6-labeled RAB25; source: BL21 cells, purified (Ni-NTA, Superdex 75 gel filtration)
T5 sequence (looked up): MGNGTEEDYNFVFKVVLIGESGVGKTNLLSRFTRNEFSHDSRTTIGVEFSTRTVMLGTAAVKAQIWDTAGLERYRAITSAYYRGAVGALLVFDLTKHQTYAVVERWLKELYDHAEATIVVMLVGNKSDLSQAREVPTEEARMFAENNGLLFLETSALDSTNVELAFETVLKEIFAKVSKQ
Description: AlphaScreen or HTRF; competition: soluble peptide or protein at varied concentration with biotin-RFP14 and H6-RAB25 (0.2 μM each); streptavidin donor and Ni2+-NTA acceptor beads; FP buffer with 0.1% BSA; room temperature. The settings on record: both partners purified.

Series [7] has as its target T6, His6-RAB25 (1–180) (UniProt P57735 1-180).
T6 chain: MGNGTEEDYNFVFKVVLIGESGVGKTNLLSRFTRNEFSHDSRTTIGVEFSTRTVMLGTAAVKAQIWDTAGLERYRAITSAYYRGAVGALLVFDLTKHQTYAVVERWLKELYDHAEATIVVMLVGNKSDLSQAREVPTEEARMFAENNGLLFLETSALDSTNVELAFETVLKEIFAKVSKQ
Description: competition with bio-RFP14 (ALPHAscreen).

Take `CC[C@H](C)[C@H](NC(=O)[C@H](CCCNC(=N)N)NC(=O)[C@H](C)NC(=O)[C@H](C)NC(=O)[C@]1(C)CCCC=CCCC[C@](C)(NC(=O)[C@H](CC(N)=O)NC(=O)[C@H](CCC(N)=O)NC(=O)[C@H](CC(C)C)NC(=O)[C@H](CCCNC(=N)N)NC(=O)[C@H](Cc2ccccc2)NC(=O)[C@H](CC(N)=O)NC(=O)[C@@H](NC(=O)[C@H](CCCNC(=N)N)NC(=O)CCNC(=O)[C@@H](N)Cc2c[nH]c3ccccc23)[C@@H](C)CC)C(=O)N[C@@H]([C@@H](C)CC)C(=O)N[C@@H](CC(=O)O)C(=O)N[C@@H](CCCNC(=N)N)C(=O)N1)C(=O)N[C@@H](C)C(=O)N[C@@H](CCC(=O)O)C(=O)N[C@H](C(=O)N[C@@H](CC(N)=O)C(=O)N1CCC[C@H]1C(=O)N[C@@H](CO)C(=O)N[C@H](C(=O)N[C@@H](CC(C)C)C(=O)N[C@@H](CCC(=O)O)C(=O)N[C@H](C(=O)N[C@@H](CCCCN)C(N)=O)C(C)C)[C@@H](C)CC)[C@@H](C)O` [RFP31] (H-W[βAla]RINFRLQN[S5]IDR[S5]AARIAETNPSILEVK-NH2; staple 11-15): the Kd in series [1] and in series [2] was above 5 µM throughout. This molecule returned an IC50 in series [3] of 3.3 µM.

Regarding `CCCC[C@H](NC(=O)[C@@H](NC(=O)[C@H](CCCNC(=N)N)NC(=O)[C@@H](NC(=O)[C@@H](NC(=O)[C@]1(C)CCCC=CCCC[C@](C)(NC(=O)[C@H](CC(N)=O)NC(=O)[C@H](CCC(N)=O)NC(=O)[C@H](CC(C)C)NC(=O)[C@H](CCCNC(=N)N)NC(=O)[C@H](Cc2ccccc2)NC(=O)[C@H](CC(N)=O)NC(=O)[C@@H](NC(=O)[C@H](CCCNC(=N)N)NC(=O)CCNC(=O)[C@@H](N)Cc2c[nH]c3ccccc23)[C@@H](C)CC)C(=O)N[C@@H]([C@@H](C)CC)C(=O)N[C@@H](CC(=O)O)C(=O)N[C@@H](CCCNC(=N)N)C(=O)N1)[C@@H](C)CC)C(C)C)[C@@H](C)CC)C(=O)N[C@@H](CCC(=O)O)C(=O)N[C@H](C(=O)N[C@@H](CC(N)=O)C(=O)N1CCC[C@H]1C(=O)N[C@@H](CO)C(=O)N[C@H](C(=O)N[C@@H](CC(C)C)C(=O)N[C@@H](CCCNC(=N)N)C(=O)N[C@H](C(=O)N[C@@H](CCCCN)C(N)=O)C(C)C)[C@@H](C)CC)[C@@H](C)O` [RFP26] (H-W[βAla]RINFRLQN[S5]IDR[S5]IVRI[Nle]ETNPSILRVK-NH2; staple 11-15), the “toxicity in wound healing studies” value in series [4] is “considerable toxicity”.

With {FITC-monoethylene glycol}-KQEEINFRLQDYIDRIIVAI[Met(O)]ETNPSILEVK [RFP5], in series [5], the “fold lower affinity than the unoxidised peptide” value was around 5 fold.

B1: GST-FIP3 (649–756) (domain or fragment, UniProt O75154 649-756, looked up)
chain: MGLQEYHSRARESELEQEVRRLKQDNRNLKEQNEELNGQIITLSIQGAKSLFSTAFSESLAAEISSVSRDELMEAIQKQEEINFRLQDYIDRIIVAIMETNPSILEVK
notes: Rab11-FIP3 (Class-II FIP), residues 649-756; vector pGEX 6P-1; no cleavage of GST is described; also called FIP3 protein (residues 649–756); source: BL21 cells, purified (glutathione sepharose, Superdex 75 gel filtration)
For B1, the binding result in series [6] is given as “binds”. The same molecule showed an IC50 in series [7] above 10 µM.
